Experiment [1] concerns mouse partial liver resection model. In words: Liver weight increase in mouse partial liver resection model. It is filed as in vivo. As to conditions: BALB/c mice; intraperitoneal, 4 times every 24 hr; about 30% of the liver removed; FIG. 2. The procedure: A partial liver resection model in which the mouse liver was partially resected was prepared as described below, and the liver weight increasing effect of the compound of the present invention was evaluated by comparing the liver weight immediately after the resection with the liver weight 3 days after the resection.
A 0.5 w/v % methylcellulose aqueous solution (0.5% MC, manufactured by FUJIFILM Wako Pure Chemical Corporation) and A-007 were evaluated. A-007 was suspended in 0.5% MC, and prepared at a final concentration of 1 mg/mL.
Mice, BALB/cAnNCrlCrlj, 5-week-old, male, were purchased from CHARLES RIVER LABORATORIES JAPAN. In terms of the 0.5% MC administration-control group, 0.5% MC 10 mL/kg was administered intraperitoneally once, and 24 hr later, the entire liver was isolated and the liver weight was measured (n=3). As used herein, the control group means a group without removal of the liver. […]
Immediately after the second administration, the abdomen was opened under isoflurane (manufactured by Intervet Co., Ltd.) anesthesia, and the root of liver lobe was ligated with a suture thread, and about 30% of the liver was finally removed by excising the tip of the ligated liver lobe. After that, the abdomen was closed, and 24 hr after the final administration, the entire liver was removed and the liver weight was measured (n=3). […]

For the next experiment, the system named is small intestine organoid. Description: Mouse small intestine organoid culture. In kind it is cell-based. As to conditions: day 9 of culture, 10 μM. The procedure: (§1) 7-Week-old male C57BL/6N mice were purchased from CHARLES RIVER LABORATORIES JAPAN, INC. After the acclimation period, the small intestine and colon were isolated under anesthesia. Crypts were collected from the excised small intestine and colon according to the protocol of IntestiCult (trade mark) Organoid Growth Medium. To be specific, the inside of the intestine was washed with 1 mL of cold PBS, then incised vertically, and washed 3 times with 1 mL of cold PBS. The intestine was transferred to a 10 cm petri dish filled with cold PBS, washed thoroughly again, and transferred to a 50 mL tube containing 15 mL of cold PBS while cutting into 2 mm pieces. […] The number of crypts contained in 10 μL of the suspension was counted under a microscope to determine the concentration, and the mixture was dispensed into a 15 mL tube at 800 crypts/tube, and centrifuged at 4° C., 200 g×5 min. […] Organoids were image-analyzed over time by Cell3iMager duos (SCREEN Holdings Co., Ltd.). For image analysis, the number of crypts having a diameter of 30-200 μm was counted as the number of seeded crypts on the first day of culture, and then those grown to 70 μm or more over time were counted as organoids, and the organoid formation rate from the crypts was calculated. At that time, the average diameter of the organoids measured at the same time was calculated. […]

In the next experiment the test system is colon organoid. Description: Mouse colon organoid culture. In kind it is cell-based. As to conditions: day 21 of culture, 10 μM. The procedure:
as §1

Molecules are shown by their SMILES.

`CC/C(=N\NC(=O)C(C)Nc1cncc(F)c1)c1ccc(O)c(C)c1O` (centres unmarked) [A-007]: in experiment [1], the “changes in the liver weight ratio” value is recorded as “has an action of promoting a liver weight increase”. Besides, the figures for the “formation rate (%)” value with small intestine organoid (DMSO 39) and with colon organoid (DMSO 14) were 70% and 49%, respectively. Also, the “average diameter (μm)” value with small intestine organoid (DMSO 202) was determined as 257 μm; in the experiment with colon organoid (DMSO 207) it was 251 μm.
